Assay results reported in patent US9643032B2, “Application of dehydroascorbic acid or derivatives/isomers thereof for artificially coloring the skin” (L'Oreal, priority 2007, dated 2017).

System: Episkin model of reconstructed skin
Experiment: Skin coloring on the Episkin model of reconstructed skin, spectrocolorimeter measurement after washing
Format: cell-based
Experimental: The products are evaluated on the Episkin model of reconstructed skin after 18 days of culturing. The crucibles are placed on Whatman paper. 20 μl of a 5 wt % solution of test product in a 50% water/50% ethanol mixture. […] A second rinse is performed with 1 ml of water. The residual liquid is absorbed using a soft paper tissue. The measurements are taken using a Minolta CM-2600d spectrocolorimeter.
Spectrocolorimeter Minolta CM2600d
The results are expressed in the system (L*, a*, b*) dans lequel L* is the luminance, a* is the red-green axis (−a*=green, +a*=red) and b* is the yellow/blue axis (−b*=blue, +b*=yellow). Therefore, a* and b* express the coloring of the skin.
The color deviation is obtained with the color deviation formula of Hunter in the calorimetric domain L, a, b: (ΔE)^2=[(ΔL)^2+(Δa)^2+(Δb)^2]. ΔE is the darkening, the global intensity of the color: The more ΔE is important the more the color darkened.

[1] = 5 wt % solution in 50% water/50% ethanol, 20 μl, after 24 hours, after washing

O=C1OC(C(O)CO)C(=O)C1=O (stereo not drawn) [Dehydroascorbic acid, threo-2,3-hexodiulosono-1,4-lactone, 9CI]
L* (luminance / intensity) [1]: 77.7
a* (red component) [1]: 4.8
b* (yellow component) [1]: 35
ΔE*ab (color deviation, darkening) (5 wt % solution, after 24 hours, after washing, deviation versus Episkin alone): 14.6
Shade obtained compared with DHA (concentration equal to 5 wt %): stronger shade with a more pronounced dominant red
